Results on three molecules are retold here after paper PMC7037305 (2020).

Experiment [1] has as its system Telomere G1 (DNA, G4) TAGGGTTAGGGTTAGGGTTAGGG
Description: ITC. To be noted: K+ (50 mM KH2PO4-K2HPO4); potassium phosphate buffer pH 7.0, 25 °C, dilute condition without PEG200.

The subject of experiment [2] is c-myc (DNA, G4) TGAGGGTGGGGAGGGTGGGGAA
The experiment is described as follows: ITC. To be noted: K+ (50 mM KH2PO4-K2HPO4); potassium phosphate buffer pH 7.0, 25 °C, dilute condition without PEG200.

In experiment [3] the test system is Telomere G1 (DNA, G4) TAGGGTTAGGGTTAGGGTTAGGG
Description: CD melting at 288 nm. Particulars: 100 mM KCl, 50 mM Tris-HCl pH 7.4, 4.5 μM compound, 1.5 μM DNA.

In experiment [4] the test system is c-myc (DNA, G4) TGAGGGTGGGGAGGGTGGGGAA
The experiment is described as follows: CD melting at 263 nm. To be noted: 5 mM KCl; 50 mM Tris-HCl pH 7.4; 4.5 μM compound, 1.5 μM DNA.

For the molecule `CN1CCCNC(=O)c2cccc(c2)C(=O)NCCCN(C)CCCN2C(=O)c3ccc4c5c(ccc(c35)C2=O)C(=O)N(CCC1)C4=O`, the Ka in experiment [1] was determined as 2.2e+06 M⁻¹; in experiment [2], 2.4e+06 M⁻¹. Further, the ΔTm in experiment [3] (derived from two Tm (79, 65)) is 14 °C; in experiment [4], greater than 15 °C.
For the molecule `CN1CCCNC(=O)CCCC(=O)NCCCN(C)CCCN2C(=O)c3ccc4c5c(ccc(c35)C2=O)C(=O)N(CCC1)C4=O`, the Ka in experiment [1] worked out at 3.4e+06 M⁻¹; in experiment [2] it was 1.1e+06 M⁻¹. For the same molecule, the ΔTm is 5.5 °C in experiment [3] (derived from two Tm (70.5, 65)) and greater than 15 °C in experiment [4].
In the case of `CN1CCCNC(=O)CC2(CCCCC2)CC(=O)NCCCN(C)CCCN2C(=O)c3ccc4c5c(ccc(c35)C2=O)C(=O)N(CCC1)C4=O`, the Ka came out at 1.5e+06 M⁻¹ in experiment [1] and 6.2e+06 M⁻¹ in experiment [2]. The ΔTm in experiment [3] (derived from two Tm (73.5, 65)) was 8.5 °C; in experiment [4], greater than 15 °C.
